This note sets out measurements from US20150005347A1, “NITROGEN-CONTAINING HETEROCYCLIC DERIVATIVE HAVING 2-IMINO GROUP AND PEST CONTROL AGENT INCLUDING THE SAME” (MEIJI SEIKA PHARMA CO., LTD., priority 2012, published 2015).

Read-outs that look alike come from different tables or passages of the source.

What all share (type): in vivo
For one data set, the system named is Nephotettix cincticeps. The experiment in a line: Pest control test of Nephotettix cincticeps, soil irrigation treatment. The note with it: for % Mortality, Test Example 14 Nephotettix cincticeps: soil irrigation treatment. The method, then:
Test Example 14 Pest Control Test of Nephotettix cincticeps
A rice seedling in pot culture was subjected to soil irrigation treatment with a drug solution of the compound of the present invention at a predetermined concentration, which had been prepared so as to be a 10% acetone water. Three days after the treatment, five second instar larvae of Nephotettix cincticeps were each released thereto. Thereafter, the larvae were left to stand in a thermostatic chamber (16 hours of light period-8 hours of dark period) at 25° C. […] The test was performed in duplicate.
(§1) Mortality of larvae(%)={number of dead larvae/(number of survived larvae+number of dead larvae)}×100

The subject of the next data set is housefly instar larvae. The data set can be described thus: Pest control test of housefly instar larvae, treated bait. The following applies: Musca domestica, read-out: mortality of larvae, chrysalises and adults. How it is done:
Test Example 22 Pest Control Test of Housefly Instar Larvae
Compound 1-20 was blended with an extremely small amount of DMSO, and then the resulting mixture was dissolved in deionized water to adjust the drug solution. 10 ml of the drug solution adjusted to be 30 ppm was added to 10 g of powder in which wheat bran, MF feed (Oriental Yeast Co., Ltd.) and dry yeast had been mixed in a ratio of 25:5:1, and the mixture was mixed well to prepare a bait for housefly instar larvae. A 50 ml Falcon tube was slightly filled with the bait including the compound, and 20 eggs were released thereto. The mouth of the Falcon tube was covered with a mesh-topped lid, and the tube was allowed to stand at 25° C. Twenty days after the drug treatment, the numbers of instar larvae, chrysalises and adults were measured, and the mortality of larvae, chrysalises and adults was calculated by the following equation. The test was performed by repeating each treatment twice.
Mortality of larvae,chrysalises and adults(%)={number of dead larvae,chrysalises and adults/(number of survived larvae,chrysalises and adults+number of dead larvae,chrysalises and adults)}×100

Data set [1] concerns Laodelphax striatella. The experiment in a line: Pest control test of Laodelphax striatella, foliar spray on rice seedling. The following applies: Laodelphax striatellus, foliar. The method, then:
Test Example 6 Pest Control Test of Laodelphax striatella
A drug solution of the compound of the present invention at a predetermined concentration, which had been prepared so as to be a 50% acetone water (0.05% Tween20 available), was foliar sprayed to a rice seedling in pot culture. After an air drying process, second instar larvae were released thereto. Thereafter, the larvae were left to stand in a thermostatic chamber (16 hours of light period-8 hours of dark period) at 25° C. […] Test in duplicate.
as §1

The subject of the next data set is Musca domestica. The experiment in a line: Pest control test of Musca domestica adults, sucrose pledget. The following applies: 50 ppm in 40% sucrose liquid; four days after release. The method, then: Test Example 21 Pest Control Test of Musca domestica
A drug solution of the compound of the present invention, which had been adjusted to be 50 ppm with a 40% sucrose liquid, was adsorbed on a pledget, and the pledget was put into a vial. Two adults reared indoors were released thereto. Thereafter, the adults were left to stand indoors at room temperature of 25° C. […] When two adults were all agonized in death, it was judged to be effective.

The next data set deals with Aphis gossypii. The data set can be described thus: Pest control test of Aphis gossypii, cucumber leaf disk foliar spray. The following applies: Aphis gossypii, foliar. The method, boiled down: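 Cucumber leaf disks (2.0 cm) sprayed with compound at a set concentration in 50% acetone water with 0.05% Tween20, air-dried, then infested with first instar larvae; held at 25 °C, 16 h light/8 h dark. Larval mortality (%) = dead/(survived + dead) × 100; duplicate.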

The next data set deals with Oulema oryzae. The experiment in a line: Pest control test of Oulema oryzae, soil irrigation treatment. The following applies: 0.05 mg/seedling, three days after release. The method, then: Test Example 13 Pest Control Test of Oulema oryzae
A rice seedling in pot culture was subjected to soil irrigation treatment with a drug solution of the compound of the present invention at a predetermined concentration, which had been prepared so as to be a 10% acetone water. Three days after the treatment, two second instar larvae of Oulema oryzae were each released thereto. Thereafter, the larvae were left to stand in a thermostatic chamber (16 hours of light period-8 hours of dark period) at 25° C. […] The test was performed in duplicate.
as §1

A further data set deals with Callosobruchus chinensis. The experiment in a line: Pest control test against Callosobruchus chinensis, topical treatment of adults. How it is done:
Test Example 5 Pest control test against Callosobruchus chinensis
1 μL (/head) of a drug solution of the compound of the present invention prepared at a predetermined concentration with acetone was treated to the back of Callosobruchus chinensis adults. After the drug treatment, the adults were transferred to a plastic cup and left to stand in a thermostatic chamber at 25° C.
Rate of agonized adults(%)={number of dead adults/(number of survived adults+number of dead adults)}×100

Data set [2] deals with Laodelphax striatella. The experiment in a line: Pest control test of Laodelphax striatella, soil irrigation treatment of rice seedling. The note with it: soil irrigation treatment.
From the text: <Soil Irrigation Treatment Test>
Test Example 10 Pest Control Test of Laodelphax striatellua
A rice seedling in pot culture was subjected to soil irrigation treatment with a drug solution of the compound of the present invention at a predetermined concentration, which had been prepared so as to be a 10% acetone water. Three days after the treatment, ten second instar larvae of Laodelphax striatella were each released thereto. Thereafter, the larvae were left to stand in a thermostatic chamber (16 hours of light period-8 hours of dark period) at 25° C. […] The test was performed in duplicate.
as §1

The next data set concerns Coptotermes formosanus. The data set can be described thus: Pest control test of Coptotermes formosanus, treated filter paper. The note with it: 168 h, read-out: mortality of insects. How it is done:
Test Example 27 Pest Control Test of Coptotermes formosanus
A filter paper was allowed to be soaked in a drug solution of the compound of the present invention at a predetermined concentration, which had been prepared with acetone. The filter paper was sufficiently blow-dried and then put into a plastic petri dish, and 5 insects of Coptotermes formosanus (worker ant) were each released thereto. Thereafter, the insects were left to stand in a thermostatic chamber (16 hours of light period-8 hours of dark period) at 25° C. […] The test was performed in duplicate.
Mortality of insects(%)={number of dead insects/(number of survived insects+number of dead insects)}×100

[3] abbreviates: 72 h, read-out: mortality of larvae.
The mark [4] stands for this setting: read-out: % Mortality, Test Example3 Aphis gossypii.

As for `FC(F)(F)C(=S)/N=c1\ccccn1Cc1ccc(Cl)nc1` [Compound 1-20, N-[1-((6-chloropyridin-3-yl)methyl)pyridin-2(1H)-ylidene]-2,2,2-trifluoroethanethioamide], the “% Mortality, Test Example 14 Nephotettix cincticeps” value is on record as 67% with Nephotettix cincticeps (0.0001 mg/pot), 67% with Nephotettix cincticeps (0.001 mg/pot) and 100% in the data set on Nephotettix cincticeps (0.01 mg/pot). Further, the mortality of larvae is given as no less than 80% in the data set with Nephotettix cincticeps (soil irrigation, 0.05 mg/seedling, three days after release) and no less than 80% in the data set with Oulema oryzae. For the same molecule, in the data set on housefly instar larvae, the mortality at 30 ppm worked out at 100%. Besides, the mortality at 1.25 ppm is no less than 80% in the data set with Laodelphax striatella [1] (144 h, read-out: mortality of larvae); 95% in the data set with Laodelphax striatella [1] (read-out: % Mortality, Test Example6 Laodelphax striatella); 75% with Aphis gossypii (setting [4]). Besides, the “activity against adults (effective when two adults were all agonized in death)” value in the data set with Musca domestica was “all the adults are agonized in death”. In addition, the results for the mortality at 20 ppm with Aphis gossypii (setting [3]) and in the data set with Aphis gossypii (setting [4]) were no less than 80% and 100%, respectively. For the same molecule, the mortality at 100 ppm in the data set on Aphis gossypii (setting [3]) was no less than 80%; in the data set on Aphis gossypii (setting [4]), 100%. Besides, the mortality at 5 ppm in the data set with Aphis gossypii (setting [4]) stood at 100%. Also, in the data set with Callosobruchus chinensis (0.1 μg/head on the back of adults, twenty four hours after treatment), the mortality of adults was no less than 80%. The “% Mortality, Test Example5 Callosobruchus chinensis” value with Callosobruchus chinensis (Concentration 10 (ppm)) and with Callosobruchus chinensis (Concentration 100 (ppm)) was 100% in each case. Further, the “% Mortality, Test Example 10 Laodelphax striatella” value was 75% in the data set with Laodelphax striatella [2] (0.005 mg/pot), 91% with Laodelphax striatella [2] (0.01 mg/pot) and 100% in the data set on Laodelphax striatella [2] (0.05 mg/pot). For the same molecule, in the data set with Coptotermes formosanus, the mortality at 0.5 µg/cm2 was 100%.

One may read the mortality as the share of the test organisms that died.
